These results are taken from patent US6407288B1, “Naphthylsalicylanilides as antimicrobial and antiinflammatory agents” (The Research Foundation of State University of New York, priority 2000, dated 2002).

Structures are written as SMILES. Converted amounts (≈) assume the structure as drawn.

Test [1] relates to Aa Y4. The test is described as follows: MIC microdilution, gram negative. Type of test: cell-based, Actinobacillus actinomycetemcomitans. To be noted: for MIC: Aggregatibacter actinomycetemcomitans, Y4, Table 3, Gram Negative; for MIC Aa Y4: Table 3 printed a second time, Gram Negative. Summed up:
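Modified NCCLS broth microdilution; anaerobes grown 48-72 hrs in half-strength BHI with yeast extract, hemin and menadione, aerobes in full-strength BHI, inoculum ~1×10^8 CFU/mL (10 μL/assay). Drugs from DMSO stock, final 50 to 0.05 μg/assay, duplicate, 24 to 48 hrs (anaerobic: 5% CO2, 10% H2, N2); MIC = lowest concentration without visible growth.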

Test [2] relates to Str. pyo. Nature of the test: Mean Streptococcus MIC. Type of test: cell-based. To be noted: Streptococcus; Table 5, mean. An outline of the steps: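 Modified NCCLS broth microdilution in duplicate: 10 μL inoculum from cultures diluted to about 1×10^8 CFU/mL, drug 50 to 0.05 μg/assay diluted from DMSO stock. Full-strength BHI for aerobes, supplemented half-strength BHI under 5% CO2/10% H2/N2 for anaerobes, 24–48 h; MIC as lowest concentration without visible growth.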

For `O=C(Nc1cccc(C(F)(F)F)c1)c1cc(C(=O)c2cccc3ccccc23)ccc1O` [NA1mF], in test [1], the MIC is 3.1 µg/mL (≈ 7.12 µM) and the “MIC Aa Y4” value is 3.1 micrograms/ml. The compound also had an MIC in test [2] of 1 µg/mL (≈ 2.3 µM).
In the case of `CCCCc1ccc(C(=O)c2ccc(O)c(C(=O)Nc3cccc(C(F)(F)F)c3)c2)cc1` [BBAmF, reference compound], in test [1], the MIC is more than 50 µg/mL and the “MIC Aa Y4” value was “NE (NE indicates that the drug was not effective at a concentration >50 micrograms/ml)”.
As to `N#Cc1cccc(NC(=O)c2cc(C(=O)c3cccc4ccccc34)ccc2O)c1` [NA1mC], in test [1], the MIC is 6.3 µg/mL (≈ 16.1 µM) and the “MIC Aa Y4” value worked out at 6.3 micrograms/ml. In test [2], this compound registered an MIC of 16.7 µg/mL (≈ 42.5 µM).
With `N#Cc1cccc(NC(=O)c2cc(C(=O)c3ccc(-c4ccccc4)cc3)ccc2O)c1` [BPAmC, reference compound], in test [1], the MIC was more than 50 µg/mL and the “MIC Aa Y4” value is listed as “NE (NE indicates that the drug was not effective at a concentration >50 micrograms/ml)”.
`O=C(c1ccc(-c2ccccc2)cc1)c1ccc(O)c(C(=O)Nc2cccc(C(F)(F)F)c2)c1` [BPAmF, reference compound]: in test [1], the MIC was more than 50 µg/mL and the “MIC Aa Y4” value is listed as “NE (NE indicates that the drug was not effective at a concentration >50 micrograms/ml)”.
